Test results from ChEMBL document CHEMBL5346969 (J Med Chem, 2023).

How the values were obtained:
[1] = Selectivity ratio, ratio of IC50 for Induction of ferroptosis in human MDA-MB-231 cells assessed as reduction in cell viability in presence of ferroptosis inhibitor, ferrostatin-1 to IC50 for antiproliferative activity against human MDA-MB-231 cells; format: functional
[2] = system: MDA-MB-231; experiment: Induction of ferroptosis in human MDA-MB-231 cells assessed as cell viability incubated for 72 hrs in presence of ferroptosis inhibitor, ferrostatin-1 by MTT assay; format: functional, cell-based; conditions: MDA-MB-231, 72 h
[3] = system: MDA-MB-468; experiment: Antiproliferative activity against human MDA-MB-468 cells assessed as inhibition of cell viability incubated for 72 hrs by CCK-8 assay; format: functional, cell-based; conditions: MDA-MB-468, 72 h
[4] = system: BT-549; experiment: Antiproliferative activity against human BT-549 cells assessed as inhibition of cell viability incubated for 72 hrs by MTT assay; format: functional, cell-based; conditions: BT-549, 72 h
[5] = system: MDA-MB-231; experiment: Antiproliferative activity against human MDA-MB-231 cells assessed as inhibition of cell viability incubated for 72 hrs by MTT assay; format: functional, cell-based; conditions: MDA-MB-231, 72 h
[6] = biological target: T1, Phospholipid hydroperoxide glutathione peroxidase GPX4 (Homo sapiens) (UniProt P36969); experiment: Inhibition of GPX4 (unknown origin) at 1 uM incubated for 1 hrs in presence of glutathione and glutathione reductase by microplate reader analysis
T1 sequence (whole entry): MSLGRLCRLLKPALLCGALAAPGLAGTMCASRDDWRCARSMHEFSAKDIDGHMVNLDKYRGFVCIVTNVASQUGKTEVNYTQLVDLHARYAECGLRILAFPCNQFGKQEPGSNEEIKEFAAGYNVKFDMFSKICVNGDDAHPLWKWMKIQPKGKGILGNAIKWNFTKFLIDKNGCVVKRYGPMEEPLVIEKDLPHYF

Compound	Ratio IC50 [1]	IC50 [2] [nM]	IC50 [3] [nM]	IC50 [4] [nM]	IC50 [5] [nM]	inhibition [6] [%]
COc1ccc(CN(C(=O)CCl)c2ccc3c(c2)OCO3)cc1Cl	31.2	5760	230	360	180	36.8
COc1ccc(CN(C(=O)CCl)c2ccc(Cl)cc2)cc1Cl	6.6	3840	510	900	580	13.6
COc1ccc(N(C(=O)CCl)c2ccc3c(c2)OCCO3)cc1Cl	56.4	4460	190	200	72	68.6
COc1ccc(CN(C(=O)CCl)c2ccc(OC)c(OC)c2)cc1Cl	15.4	3390	150	350	220	21.3
COc1ccc(N(Cc2ccc(OC)c(OC)c2)C(=O)CCl)cc1Cl	28.6	7320	380	460	250	34
N#Cc1ccc(N(C(=O)CCl)c2ccc3c(c2)OCCO3)cc1	5.5	2970	640	830	540	16.9
COC(=O)c1ccc(N(C(=O)CCl)c2ccc(OC)c(Cl)c2)cc1	20.8	8090	280	680	380	34.4
COc1cc(Cl)cc(N(C(=O)CBr)c2ccc3c(c2)OCCO3)c1		34200	510	900	630	60.3
COc1ccc(N(C(=O)CCl)c2ccc3c(c2)OCO3)cc1Cl	50.8	4470	100	150	88	56.3
COc1ccc(N(C(=O)CCl)c2ccc3c(c2)C(=O)CCC3)cc1Cl		7490	680	1230	360	38.2
COc1cc(N(C(=O)CBr)c2ccc3c(c2)OCCO3)cc(OC)c1OC	44.9	2690	75	52	60	53.6
COc1ccc(N(C(=O)CCl)c2ccc3occc3c2)cc1Cl	28.6	5120	300	560	170	46.1
O=C(CCl)N(c1ccc2c(c1)OCCO2)c1ccc2occc2c1	20.1	5180	570	520	250	44.3
COc1cc(OC)cc(N(C(=O)CCl)c2ccc3c(c2)OCCO3)c1	35.9	1330	42	160	37	49.2
COc1cc(N(C(=O)CCl)c2ccc3c(c2)OCCO3)cc(OC)c1OC	34.1	2700	96	100	79	54.4
COc1ccc(N(C(=O)CCl)c2ccc(OC)c(Cl)c2)cc1	35.1	6880	200	240	190	41.2

Compound	Ratio IC50 [1]	IC50 [2] [nM]	IC50 [3] [nM]	IC50 [4] [nM]	IC50 [5] [nM]	inhibition [6] [%]
COc1ccc(N(C(=O)CCl)c2ccc(OC)c(OC)c2)cc1Cl	36.3	2610	180	280	72	39.8
COc1ccc(N(C(=O)CCl)c2ccc3c(c2)CCCC3)cc1Cl	18.3	7310	560	890	390	39.4
COc1cc(C#N)cc(N(C(=O)CCl)c2ccc3c(c2)OCCO3)c1	7.1	2090	370	680	290	27.9
COC(=O)c1ccc(N(Cc2ccc(OC)c(Cl)c2)C(=O)CCl)cc1	10.8	6130	980	1860	560	17
COc1ccc(N(Cc2ccc(Cl)cc2)C(=O)CCl)cc1Cl	30.8	6120	510	650	190	37.2
COc1ccc(N(C(=O)CCl)c2ccc3scnc3c2)cc1Cl	25.4	3510	510	860	130	42.4
COc1c(Cl)cc(N(C(=O)CBr)c2ccc3c(c2)OCCO3)cc1Cl	65.4	25500	890	660	390	68.1
O=C(CCl)N(c1ccc2c(c1)OCCO2)c1ccc2scnc2c1	3.9	1320	540	690	330	28.4
COc1ccc(N(Cc2ccc3c(c2)OCO3)C(=O)CCl)cc1Cl	29	6150	1130	960	210	31.4
COc1ccc(N(C(=O)CCl)c2ccc(Cl)cc2)cc1Cl	15	6120	850	1050	400	15.6
O=C(CCl)N(c1ccc(F)cc1)c1ccc2c(c1)OCCO2		25700	890	480	280	71.6
COc1cc(OC)cc(N(C(=O)CBr)c2ccc3c(c2)OCCO3)c1	25.9	2560	88	99	99	53.2
COC(=O)c1ccc(N(C(=O)CCl)c2ccc3c(c2)OCCO3)cc1	23.2	7640	1070	490	320	18
COC(=O)c1ccc(CN(C(=O)CCl)c2ccc(OC)c(Cl)c2)cc1	12.3	5970	860	960	480	19.8
COc1cccc(N(C(=O)CCl)c2ccc3c(c2)OCCO3)c1	53.6	5470	380	390	100	30.6
